# Entries after “also recorded” stand apart in the source; their conditions may differ. Counter-ions that a name gives are not always drawn.
# Assays:
# [1] = tested on: immortalized human corneal endothelial cells; assay: Seahorse XFe24 mitochondrial respiration of immortalized human corneal endothelial cells grown in hyperglycemic medium; assay type: cell-based; details: 25 days of growth in 5.5-13.0 mM glucose, n=18, P<0.0001
# Description: (§1) FIG. 40. Mitochondrial respiration assay using Seahorse XFe24 extracellular flux analyzer of immortalized human corneal endothelial cells following 25 days of growth in 5.5-13.0 mM glucose and treated with 8.3 μM PQQ (n=18). Maximal respiration and spare respiratory capacity are lowered in HCECs (P<0.0001) due to hyperglycemic growing conditions.
# as §1, with “41.” for “40.”, “1.0 mM NAC” for “8.3 μM PQQ”
# [2] = tested on: primary cultures of corneal endothelial cells; assay: Seahorse XFe96 mitochondrial respiration of primary cultures of corneal endothelial cells; assay type: cell-based, human
# Description: (§2) Human corneas were obtained by Iowa Lions Eye Bank (ILEB) from nondiabetic donors 60-75 years old and stored in Optisol GS (Bausch+Lomb, Irvine, Calif.) at 4° C. following procurement in accordance with Eye Bank Association of America and ILEB policies and procedures. Endothelial cells were isolated and cultured in Seahorse XFe96 well plates until they reached confluency. Purity of cell cultures were confirmed with anti-zonula occludens 1 (ZO-1) labeling of cellular tight junctions. Once confluent, cells were treated with different concentrations of cyclodextrin-coenzyme Q10 complex in culture (1 μM, 10 μM, or 100 μM) uncomplexed coenzyme Q10 (100 μM), cyclodextrin alone, or diluent control. Mitochondrial respiration was assayed by measuring oxygen consumption using the Seahorse XFe96 Extracellular Flux Analyzer (Agilent Technologies, Santa Clara, Calif.) over 120 minutes (9-minute intervals). Wells were labeled with a nuclear counterstain (DAPI) and nuclei were counted in each well to normalize respirometry data.
# Seahorse respiration assays were conducted with MitoQ with doses ranging from 0 to 10 μM. All experiments were performed on corneal endothelial cells in culture and analyzed using the XFe96 Extracellular Flux Analyzer.
# as §2, with “MitoQ with doses ranging from 0 to” for “different concentrations of cyclodextrin-coenzyme Q10 complex in culture (1 μM,”, “μM.” for “μM, or 100 μM) uncomplexed coenzyme Q10 (100 μM), cyclodextrin alone, or diluent control.”
# [3] = tested on: human donor corneal endothelial cells; assay: Mitochondrial respiration assay (Seahorse XFe24 extracellular flux analyzer) of donor corneal endothelium after storage in supplemented Optisol GS; assay type: cell-based; details: 1 mM ascorbate-2-phosphate
# Description: Human corneal tissue pairs were obtained by Iowa Lions Eye Bank (ILEB) from nondiabetic donors 60-75 years old and stored in Optisol GS (Bausch+Lomb, Irvine, Calif.) at 4° C. following procurement in accordance with Eye Bank Association of America and ILEB policies and procedures. For 5 days prior to testing, but within 9 days of procurement, one stored tissue from a corneal pair was treated with 10 μM CoQ10, while the mate tissue was treated with diluent only as a control. Descemet membrane and endothelial cell punches were collected and mounted onto the bottom of a Seahorse assay plate (cells facing upward). Mitochondrial respiration was assayed by measuring oxygen consumption using the Seahorse XFe24 Extracellular Flux Analyzer (Agilent Technologies, Santa Clara, Calif.) over 120 minutes (9-minute intervals). Punches were labeled with a nuclear counterstain (DAPI) and remaining tissues were mounted onto slides and labeled with 488A-Annexin V, Ethidium Homodimer III, and Hoechst 33342 (Apoptotic, Necrotic, and Healthy Cells Quantification Kit; Biotium, Fremont, Calif.) to assay cell health. Nuclei were counted in each punch to normalize respirometry data. Immunohistochemistry densitometry was measured using ImageJ software.
# Human donor whole globe eye pairs were obtained by Iowa Lions Eye Bank (ILEB) and the anterior portion of the eyes were removed. For 14 days, one cornea was stored from a corneal pair treated with 1 mM ascorbate-2-phosphate, while the mate tissue was treated with diluent only as a control. Descemet membrane and endothelial cell punches were collected and mounted onto the bottom of a Seahorse assay plate (cells facing upward). Mitochondrial respiration was assayed by measuring oxygen consumption using the Seahorse XFe24 Extracellular Flux Analyzer (Agilent Technologies, Santa Clara, Calif.) over 120 minutes (9-minute intervals). Punches were labeled with a nuclear counterstain (DAPI) and nuclei were counted in each punch to normalize respirometry data. […]
# Tissue preparation and extracellular flux assays for mitochondrial respiration were performed as described in Greiner et al. (2015). In brief, after pre-stripping the EDM, 3 mm diameter EDM punches were mounted in wells of a XF24 microplate (Agilent Technologies, Santa Clara, Calif.). After acclimation for one hour at 37° C. in non-buffered assay media, metabolic activity of the EDM samples was quantified using a commercial kit (XF Cell Mito Stress Test Kits; Agilent Technologies) on a Seahorse XFe24 extracellular flux analyzer (Agilent Technologies). Following extracellular flux analysis, tissues were labeled fluorescently using a 1:1000 Sytox Green nucleic acid stain in the microtiter plate (Life Technologies, Grand Island, N.Y.) and imaged on an Olympus IX-81 inverted microscope (Olympus America, Center Valley, Pa.) using a FITC filter. Cell counts were determined using Image J (https://imagej.nih.gov/ij/download.html) and used to compute the oxygen consumption rate per cell (OCR; pmole/min/cell). Raw OCR values were used to calculate several different key parameters of metabolic function per manufacturer's directions (Agilent Technologies), as in Aldrich et al. (2017). The parameters and calculations used in this study were the main outcome measures, including basal respiration, ATP-associated oxygen consumption, proton [H^+] leak, maximal respiration, spare respiratory capacity, non-mitochondrial respiration, and coupling efficiency as described in Schneider et al. and Goldstein et al. (2018).
# Mitochondrial Respiration Assay: 3 mm punches of central and peripheral endothelium-Descemet membrane complex (EDM) were secured to the bottom of cell culture microplate wells or CECs were grown directly onto microplate.
# [4] = MitoQ 0 to 10 μM (data not shown)
# [5] = MitoQ 0 to 10 μM, control vs 10 μM P<0.001, n=3
molecule,measurement,setting,value
"O=C(O)c1cc(C(=O)O)c2c(n1)C(=O)C(=O)c1cc(C(=O)O)[nH]c1-2 [PQQ, pyrroloquinoline quinone]",maximal respiration and spare respiratory capacity lowered by hyperglycemic growing conditions,[1]; 8.3 μM PQQ,mitigates this effect
"CC(=O)N[C@@H](CS)C(=O)O [NAC, N-Acetyl-L-cysteine]",maximal respiration and spare respiratory capacity lowered by hyperglycemic growing conditions,[1]; 1.0 mM NAC,mitigates this effect
"COC1=C(OC)C(=O)C(CCCCCCCCCC[P+](c2ccccc2)(c2ccccc2)c2ccccc2)=C(C)C1=O [MitoQ, mitoquinone mesylate]",basal respiration,[2]; [4],dose dependent reductions
same,maximal respiration,[2]; [4],dose dependent reductions
same,non-mitochondrial respiration,[2]; [4],not influenced
same,proton leak,[2]; [4],not influenced
same,ATP linked oxygen consumption (ATP linked respiration),[2]; [5],dose dependent decrease; also recorded: significantly different
same,spare respiratory capacity,[2]; [5],dose dependent decrease; also recorded: significantly different
same,respiratory function,"[2]; escalating doses of MitoQ, 0 to 10 μM",dose dependent decrease in respiratory function; also recorded: decreased in respiratory function
cyclodextrin [cyclodextrin alone],mitochondrial spare respiratory capacity,[2]; uncomplexed coenzyme Q10 (100 μM) or cyclodextrin alone vs diluent control,reduces the mitochondrial spare respiratory capacity
ascorbate-2-phosphate,corneal endothelial cell mitochondrial respiration,[3],did not affect corneal endothelial cell mitochondrial respiration
same,"non-mitochondrial respiration, higher level than untreated control cells","[3]; 14 days storage, 5 paired corneas, p-value=0.053",21%

# Reference: patent US20220249399A1, “COMPOSITION COMPRISING AN ANTI-OXIDANT TO PRESERVE CORNEAL TISSUE” (University of lowa Research Foundation, priority 2019, published 2022)
